Assays:
B1R receptor of the rat = molecular target: T1, B1R receptor of the rat (Rattus norvegicus, UniProt P97583); experiment: Functional study on the bradykinin receptor 1 (B1R), FLIPR Ca2+ assay, rB1R cells; assay type: cell-based; conditions: agonist Des-Arg9-bradykinin 100 nM, % inhibition compared with the maximum achievable inhibition; for inhibition at 10 µM: CHO-K1, test substance 10 μM, read-out: B1R Antagonism, rat [10 μM] % Inhibition; for B1R Antagonism, rat [10 μM] % Inhibition: test substance 10 μM, rB1R CHO K1 cells
T1 construct: host or cells: CHO K1 cells (Chinese hamster ovary), stably transfected
T1 sequence (P97583 1-337): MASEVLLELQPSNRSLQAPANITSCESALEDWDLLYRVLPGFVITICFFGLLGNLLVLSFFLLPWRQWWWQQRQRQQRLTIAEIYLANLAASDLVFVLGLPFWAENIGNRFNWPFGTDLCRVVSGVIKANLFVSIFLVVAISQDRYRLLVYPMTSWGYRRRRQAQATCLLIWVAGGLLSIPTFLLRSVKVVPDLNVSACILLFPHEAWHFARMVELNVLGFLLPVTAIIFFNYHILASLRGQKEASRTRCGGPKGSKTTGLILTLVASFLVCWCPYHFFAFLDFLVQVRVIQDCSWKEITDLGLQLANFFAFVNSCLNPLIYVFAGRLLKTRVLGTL
Summary of the method: (§1)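 FLIPR Ca2+ read-out (Fluo-4, peak fluorescence) in stably transfected CHO K1 cells. Compounds at 10 μM, then 10 min later agonist challenge: human B1R with Lys-Des-Arg9-bradykinin 0.5 nM, rat B1R with Des-Arg9-bradykinin 100 nM; reported as % activation or % of maximal inhibition.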

human B1R receptor = molecular target: T2, human B1R receptor (Homo sapiens, UniProt P46663); experiment: Functional study on the bradykinin receptor 1 (B1R), FLIPR Ca2+ assay, hB1R cells; assay type: cell-based; conditions: agonist Lys-Des-Arg9-bradykinin 0.5 nM, % inhibition compared with the maximum achievable inhibition; for inhibition at 10 µM: CHO-K1, test substance 10 μM, read-out: B1R Antagonism, human [10 μM] % Inhibition; for B1R Antagonism, human [10 μM] % Inhibition: test substance 10 μM, hB1R CHO K1 cells
T2 construct: host or cells: CHO K1 cells (Chinese hamster ovary), stably transfected
T2 sequence (P46663 1-353): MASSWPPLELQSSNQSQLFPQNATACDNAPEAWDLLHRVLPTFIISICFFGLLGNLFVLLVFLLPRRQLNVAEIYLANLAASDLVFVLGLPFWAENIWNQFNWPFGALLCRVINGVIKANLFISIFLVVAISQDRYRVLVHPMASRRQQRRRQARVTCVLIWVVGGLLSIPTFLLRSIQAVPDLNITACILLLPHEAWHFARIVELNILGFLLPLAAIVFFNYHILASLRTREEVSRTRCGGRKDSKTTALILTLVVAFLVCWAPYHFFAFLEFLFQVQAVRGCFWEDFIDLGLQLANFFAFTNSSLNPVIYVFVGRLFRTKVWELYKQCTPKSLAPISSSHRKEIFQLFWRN
Summary of the method: as §1

SMILES | inhibition at 10 µM (B1R receptor of the rat) | inhibition at 10 µM (human B1R receptor) | B1R Antagonism, rat [10 μM] % Inhibition (B1R receptor of the rat) | B1R Antagonism, human [10 μM] % Inhibition (human B1R receptor)
O=C(COCC1CCCCN1S(=O)(=O)c1cccc(C(F)(F)F)c1)N1CCCCC1c1cncc(Br)c1 (centres unmarked) [Example 224, 1-(2-(5-bromopyridin-3-yl)piperidin-1-yl)-2-((1-(3-(trifluoromethyl)phenylsulfonyl)piperidin-2-yl)methoxy)ethanone] | 52.8% | 72.1% | – | –
CN1CCN(C2CCN(C(=O)COCC3CCCCN3S(=O)(=O)c3cccc4ccccc34)CC2)CC1 (centres unmarked) [Example 230, 1-(4-(4-methylpiperazin-1-yl)piperidin-1-yl)-2-((1-(naphthen-1-ylsulfonyl)piperidin-2-yl)methoxy)ethanone] | – | – | 62.33% | 95.42%
Cc1cc(C)c(S(=O)(=O)N2CCCCC2COCC(=O)N2CCN(CC3CCN(C)CC3)CC2)c(C)c1 (centres unmarked) [Example 232, 2-((1-(mesitylsulfonyl)piperidin-2-yl)methoxy)-1-(4-((1-methylpiperidin-4-yl)methyl)piperazin-1-yl)ethanone] | 90% | 102% | – | –
CN1CCN(C2CCN(C(=O)COCC3Cc4ccccc4CN3S(=O)(=O)c3ccc(Cl)cc3Cl)CC2)CC1 (centres unmarked) [Example 233, 2-((2-(2,4-dichlorophenylsulfonyl)-1,2,3,4-tetrahydroisoquinolin-3-yl)methoxy)-1-(4-(4-methylpiperazin-1-yl)piperidin-1-yl)ethanone] | 86.7% | 102% | – | –
O=C(COCC1CCCCN1S(=O)(=O)c1cccc2ccccc12)N1CCC(N2CCCCC2)CC1 (centres unmarked) [Example 235] | – | – | 83.46% | 102.3%
COc1cc(C)c(S(=O)(=O)N2CCCCC2COCC(=O)N(C)CCc2ccncc2)c(C)c1 (centres unmarked) [Example 239, 2-((1-(4-methoxy-2,6-dimethylphenylsulfonyl)piperidin-2-yl)methoxy)-N-methyl-N-(2-(pyridin-4-yl)ethyl)acetamide] | 99.7% | 94.7% | – | –
COc1cc(C)c(S(=O)(=O)N2CCCCC2COCC(=O)N(C)C(CN2CCCC2)c2ccccc2)c(C)c1 (centres unmarked) [Example 241, 2-((1-(4-methoxy-2,6-dimethylphenylsulfonyl)piperidin-2-yl)methoxy)-N-methyl-N-(1-phenyl-2-(pyrrolidin-1-yl)ethyl)acetamide] | 99.3% | 104% | – | –
COc1cc(C)c(S(=O)(=O)N2CCCCC2COCC(=O)N2CCN(C)CC2)c(C)c1 (centres unmarked) [Example 242, 2-((1-(4-methoxy-2,6-dimethylphenylsulfonyl)piperidin-2-yl)methoxy)-1-(4-methylpiperazin-1-yl)ethanone] | 88% | 102% | – | –
COc1cc(C)c(S(=O)(=O)N2CCCCC2COCC(=O)NCCc2c[nH]c3ccccc23)c(C)c1 (centres unmarked) [Example 243, N-(2-(1H-indol-3-yl)ethyl)-2-((1-(4-methoxy-2,6-dimethylphenylsulfonyl)piperidin-2-yl)methoxy)acetamide] | 80.6% | 24.8% | – | –

Results, then the molecule that gave them:

inhibition at 10 µM (B1R receptor of the rat) | inhibition at 10 µM (human B1R receptor) | B1R Antagonism, rat [10 μM] % Inhibition (B1R receptor of the rat) | B1R Antagonism, human [10 μM] % Inhibition (human B1R receptor) | SMILES
114% | 7.55% | – | – | Cc1cc(C)c(S(=O)(=O)N2CCCCC2COCC(=O)N2CCC(c3nc4cc(C)ccc4[nH]3)CC2)c(C)c1 (centres unmarked) [Example 222, 2-((1-(mesitylsulfonyl)piperidin-2-yl)methoxy)-1-(4-(5-methyl-1H-benzo[d]imidazol-2-yl)piperidin-1-yl)ethanone]
86.4% | 26.2% | – | – | Cc1cc(C)nc(CC2CCCCN2C(=O)COCC2Cc3ccccc3CN2S(=O)(=O)c2c(C)cc(C)cc2C)c1 (centres unmarked) [Example 223, 1-(2-((4,6-dimethylpyridin-2-yl)methyl)piperidin-1-yl)-2-((2-(mesitylsulfonyl)-1,2,3,4-tetrahydroisoquinolin-3-yl)methoxy)ethanone]
84.1% | 104% | – | – | Cc1cc(C)c(S(=O)(=O)N2CCCCC2COCC(=O)N2CCC(N3CCCCC3)CC2)c(C)c1 (centres unmarked) [Example 225, 1-(1,4′-bipiperidin-1′-yl)-2-((1-(mesitylsulfonyl)piperidin-2-yl)methoxy)ethanone]
96.9% | 76.4% | – | – | Cc1cc(C)c(S(=O)(=O)N2CCCCC2COCC(=O)N2CCCC2Cc2ccccn2)c(C)c1 (centres unmarked) [Example 226, 2-((1-(mesitylsulfonyl)piperidin-2-yl)methoxy)-1-(2-(pyridin-2-ylmethyl)pyrrolidin-1-yl)ethanone]
94.5% | 26.9% | – | – | COc1ccc(C2CCCCN2C(=O)COCC2CCCCN2S(=O)(=O)c2c(C)cc(C)cc2C)cn1 (centres unmarked) [Example 227, 2-((1-(mesitylsulfonyl)piperidin-2-yl)methoxy)-1-(2-(6-methoxypyridin-3-yl)piperidin-1-yl)ethanone]
99.8% | 88.6% | – | – | CCc1ccc(CC2CCCCN2C(=O)COCC2CCCCN2S(=O)(=O)c2c(C)cc(C)cc2C)nc1 (centres unmarked) [Example 228, 1-(2-((5-ethylpyridin-2-yl)methyl)piperidin-1-yl)-2-((1-(mesitylsulfonyl)piperidin-2-yl)methoxy)ethanone]
101% | 101% | – | – | Cc1cc(C)c(S(=O)(=O)N2CCCCC2COCC(=O)N2CCCCC2Cc2ncccc2C)c(C)c1 (centres unmarked) [Example 229, 2-((1-(mesitylsulfonyl)piperidin-2-yl)methoxy)-1-(2-((3-methylpyridin-2-yl)methyl)piperidin-1-yl)ethanone]
83.3% | 102% | – | – | Cc1cc(C)c(S(=O)(=O)N2CCCCC2COCC(=O)N2CCC(N3CCN(C)CC3)CC2)c(C)c1 (centres unmarked) [Example 231, 2-((1-(mesitylsulfonyl)piperidin-2-yl)methoxy)-1-(4-(4-methylpiperazin-1-yl)piperidin-1-yl)ethanone]
103% | 52% | – | – | Cc1cc(C)c(S(=O)(=O)N2CCCCC2COCC(=O)N2CCN(c3nc(Cc4ccccc4)cs3)CC2)c(C)c1 (centres unmarked) [Example 234, 1-(4-(4-benzylthiazol-2-yl)piperazin-1-yl)-2-((1-(mesitylsulfonyl)piperidin-2-yl)methoxy)ethanone]
99.6% | 95.9% | – | – | COc1cc(C)c(S(=O)(=O)N2CCCCC2COCC(=O)N2CCC(c3ccccn3)C2)c(C)c1 (centres unmarked) [Example 236, 2-((1-(4-methoxy-2,6-dimethylphenylsulfonyl)piperidin-2-yl)methoxy)-1-(3-(pyridin-2-yl)pyrrolidin-1-yl)ethanone]
99.5% | 99.7% | – | – | COc1cc(C)c(S(=O)(=O)N2CCCCC2COCC(=O)N2CCC(c3cccnc3)C2)c(C)c1 (centres unmarked) [Example 237, 2-((1-(4-methoxy-2,6-dimethylphenylsulfonyl)piperidin-2-yl)methoxy)-1-(3-(pyridin-3-yl)pyrrolidin-1-yl)ethanone]
99.3% | 99.9% | – | – | COc1cc(C)c(S(=O)(=O)N2CCCCC2COCC(=O)N2CCC(c3ccncc3)C2)c(C)c1 (centres unmarked) [Example 238, 2-((1-(4-methoxy-2,6-dimethylphenylsulfonyl)piperidin-2-yl)methoxy)-1-(3-(pyridin-4-yl)pyrrolidin-1-yl)ethanone]
– | – | 97.3% | 78.48% | Cc1cc(C)nc(CC2CCCN2C(=O)COCC2CCCCN2S(=O)(=O)c2cccc3ccccc23)c1 (centres unmarked) [Example 240, 1-(2-((4,6-dimethylpyridin-2-yl)methyl)pyrrolidin-1-yl)-2-((1-(naphthen-1-ylsulfonyl)piperidin-2-yl)methoxy)ethanone]

Source: patent US8435978B2, “Substituted sulfonamide compounds” (Gruenenthal GmbH, priority 2006, dated 2013)
